Data as given in patent US8697697B2, “Pyrazole derivatives as ERK inhibitors” (Kinentia Biosciences LLC, priority 2011, dated 2014).
Where a name gives a salt, the structure may show the parent alone. Values belong to the compound of their own block, whether it stands above or below them.

Assays:
ERK-2 kinase = ERK-2 kinase (Homo sapiens, UniProt P28482); assay: Assay against ERK-2 (33-P ATP, myelin basic protein substrate); assay type: biochemical; details: non-labeled ATP 1 μM, 22° C.
Experimental: Compounds of the invention were assayed for ability to inhibit ERK-2 kinase using a 33-P radio-ligand binding assay. 33-P labeled ATP was used as the radio-ligand and myelin basic protein was used as the substrate. A non-labeled ATP concentration of 1 μM was used. Plates were incubated at 22° C. before isolation and radioactivity determination by scintillation counting. The IC50 values (concentration causing a half-maximal inhibition) and Hill coefficients (nH) were determined by non-linear regression analysis of competition curves generated with 10 data points using Hill equation curve fitting.

human keratinocytes = assay: Keratinocyte proliferation assay; assay type: cell-based
Experimental: Compounds of the Invention were assayed for their ability to inhibit the proliferation of human keratinocytes. Namely, keratinocytes were plated on day zero and allowed to attach. One day later, the cells were washed and then treated with control culture medium with or without the test compound. Cells were harvested and counted on day-2. Value for the time-zero control was determined (mean and standard deviation based on triplicate experiments with n=9 data points). The untreated control value at day 2 was then determined (mean and standard deviation based on triplicate experiments with n=12 data points). All of the values from treated samples were compared to the control values and are expressed as the change from control±the standard deviation based on the three experiments.

[1] = test system: MMP-1 expression in skin fibroblasts; assay: MMP-1 expression in skin fibroblasts (Western blot); assay type: cell-based, human
Experimental: (§1) Fibroblasts were plated on day zero and allowed to attach. One day later, the cells were washed and then treated with control culture medium with or without test compound. Cells were harvested and counted on day-3. The culture medium was then assayed via Western blot analysis to determine expression levels of MMP-1.

human skin fibroblasts = assay: Skin fibroblast proliferation; assay type: cell-based; details: at higher concentrations
Experimental: as §1

Sequence of ERK-2 kinase (P28482 whole entry): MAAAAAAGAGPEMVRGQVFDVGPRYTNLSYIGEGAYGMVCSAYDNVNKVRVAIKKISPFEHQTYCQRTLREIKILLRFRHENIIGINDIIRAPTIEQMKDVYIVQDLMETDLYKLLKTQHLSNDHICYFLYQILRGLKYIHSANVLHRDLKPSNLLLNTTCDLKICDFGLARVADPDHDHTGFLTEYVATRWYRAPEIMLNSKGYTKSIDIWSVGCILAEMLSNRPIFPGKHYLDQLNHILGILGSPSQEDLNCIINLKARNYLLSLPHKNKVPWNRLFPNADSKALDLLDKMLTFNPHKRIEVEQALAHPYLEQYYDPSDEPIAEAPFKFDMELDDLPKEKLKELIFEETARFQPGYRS

- IC50 (ERK-2 kinase): 11.3 µM
SMILES: c1ccc(CNc2ccc3c(-c4[nH]ncc4-c4ccccc4)c[nH]c3n2)cc1 [Example 4, Benzyl-[3-(4-phenyl-2H-pyrazol-3-yl)-1H-pyrrolo[2,3-b]pyridin-6-yl]amine]

- IC50 (ERK-2 kinase): 1.43 µM
SMILES: Cl.Clc1cccc(-c2cn[nH]c2-c2c[nH]c3ncccc23)c1 [Example 1, 3-[4-(3-Chlorophenyl)-2H-pyrazol-3-yl]-1H-pyrrolo[2,3-b]pyridine Hydrochloride]
- GI50 (human keratinocytes; calculated from Table 2 data, read-out: GI50 (inhibition of keratinocyte proliferation)): 4.36 µM
- inhibition at 0.03 µM (human keratinocytes; test concentration 0.03 μM, cells counted on day-2, change from control): -20%
- inhibition at 0.15 µM (human keratinocytes; test concentration 0.15 μM, cells counted on day-2, change from control): -13%
- inhibition at 0.3 µM (human keratinocytes; test concentration 0.30 μM, cells counted on day-2, change from control): -6%
- inhibition at 1.51 µM (human keratinocytes; test concentration 1.51 μM, cells counted on day-2, change from control): 8%
- inhibition at 3.02 µM (human keratinocytes; test concentration 3.02 μM, cells counted on day-2, change from control): 21%
- inhibition at 6.04 µM (human keratinocytes; test concentration 6.04 μM, cells counted on day-2, change from control): 72%
- inhibition at 15.1 µM (human keratinocytes; test concentration 15.1 μM, cells counted on day-2, change from control): 118%
- MMP-1 expression ([1]; 5 μg/mL, culture medium, day-3, Western blot): significantly inhibited
- collagenase (MMP-1) production ([1]; at higher concentrations, Western blot): significant reduction
- effect on fibroblast proliferation (human skin fibroblasts): minimal effect

- IC50 (ERK-2 kinase): 2.23 µM
SMILES: Clc1cccc(-c2cn[nH]c2-c2c[nH]c3nc(NCc4ccccc4)ccc23)c1 [Example 3, Benzyl-{3-[4-(3-chlorophenyl)-2H-pyrazol-3-yl]-1H-pyrrolo[2,3-b]pyridin-6-yl}amine Dihydrochloride]

- IC50 (ERK-2 kinase): 9.86 µM
SMILES: c1ccc(-c2cn[nH]c2-c2c[nH]c3ncccc23)cc1 [Example 2, 3-[4-Phenyl-2H-pyrazol-3-yl]-1H-pyrrolo[2,3-b]pyridine Hydrochloride]
